Where two headings read alike, the source gives them in different places.

Among the test systems are U937; MOLM-13; ML-2; CMK; MV4-11; CMS; M07e; CHRF288-11.
Holding throughout (design): species or system AML cell lines (8); Primary HTS, single concentration about 10 uM, Cell Titer Glo viability; log10 luminescence, per cent inhibition relative to cycloheximide control
What all share (conditions): 72 h, relative to cycloheximide control, log10 luminescence, inhibitor
(In ATP-based viability assays light output follows the ATP content of the culture.)

In the case of `O=c1oc2ccccc2c(O)c1Cc1c(O)c2ccccc2oc1=O` [SJ000285189-5, DICUMAROL], the U937 %inh in the test with U937 (U937 %inh, 10 µM) is recorded as -0.6%. The MOLM-13 %inh in the test on MOLM-13 (MOLM-13 %inh, 10 µM) is listed as -3.706%. For the same compound, in the test with ML-2 (ML-2 %inh, 10 µM), the ML-2 %inh was -1.314%. Further, the CMK %inh with CMK (CMK %inh, 10 µM) is given as -3.554%. In addition, the MV4-11 %inh in the test with MV4-11 (MV4-11 %inh, 10 µM) was -2.098%. In addition, the CMS %inh in the test with CMS (CMS %inh, 10 µM) is recorded as -1.99%. Besides, the M07e %inh with M07e (M07e %inh, 10 µM) is -2.456%. Further, the CHRF288-11 %inh in the test on CHRF288-11 (CHRF288-11 %inh, 10 µM) was found to be 8.973%.

In the case of `O=C1NC(=N[C@H](CO)Cc2ccccc2)S/C1=C\c1ccc2ncccc2c1` [SJ000581019-2], the U937 %inh with U937 was 7.541%. For the same compound, in the test on MOLM-13, the MOLM-13 %inh stood at 1.796%. Further, the ML-2 %inh in the test on ML-2 came to 1.703%. In addition, in the test with CMK, the CMK %inh is listed as 5.29%. Moreover, the MV4-11 %inh with MV4-11 is 1.969%. Moreover, in the test on CMS, the CMS %inh was 2.2%. Further, the M07e %inh with M07e was found to be 7.526%. Besides, the CHRF288-11 %inh in the test on CHRF288-11 was 7.52%.

As to `C[C@@H](Oc1cc(-n2cnc3ccc(OC4CCN(C)CC4)cc32)sc1C(N)=O)c1ccccc1Cl` [SJ000573015-1, U20958/186/1], the U937 %inh in the test with U937 came to 71%. In the test with MOLM-13, the MOLM-13 %inh is given as 100.2%. The ML-2 %inh with ML-2 is 28.2%. In addition, the CMK %inh with CMK was 85.68%. The MV4-11 %inh in the test with MV4-11 is 65.04%. Also, the CMS %inh with CMS turned out to be 56.77%. Also, the M07e %inh in the test with M07e was 91.2%. The CHRF288-11 %inh in the test with CHRF288-11 amounted to 79.26%.

In the case of `NCc1ccc(-n2c(-c3nonc3N)nc3cnccc32)cc1` [SJ000573066-1, CP100101-172A1], in the test on U937, the U937 %inh worked out at 21.07%. Besides, the MOLM-13 %inh in the test on MOLM-13 is recorded as 27.71%. For the same compound, in the test with ML-2, the ML-2 %inh was found to be 11.91%. Further, the CMK %inh in the test with CMK was found to be 18.18%. Besides, the MV4-11 %inh in the test on MV4-11 is given as 62.53%. The CMS %inh in the test with CMS was 11.21%. Moreover, the M07e %inh in the test on M07e is on record as 5.233%. For the same compound, the CHRF288-11 %inh with CHRF288-11 was 11.55%.

On to `CC1(C)O[C@@H]2C[C@H]3[C@@H]4C[C@H](F)C5=CC(=O)C=C[C@]5(C)[C@@]4(F)[C@@H](O)C[C@]3(C)[C@]2(C(=O)CO)O1` [SJ000287016-2, FLUOCINOLONE ACETONIDE], for which the U937 %inh with U937 is recorded as 7.141%. Also, in the test on MOLM-13, the MOLM-13 %inh came out at 1.204%. The ML-2 %inh with ML-2 is 2.188%. Moreover, the CMK %inh in the test with CMK is on record as -1.286%. In addition, the MV4-11 %inh in the test with MV4-11 was 1.404%. The CMS %inh with CMS worked out at 9.034%. In addition, in the test on M07e, the M07e %inh is reported as -0.198%. Besides, the CHRF288-11 %inh in the test with CHRF288-11 turned out to be 4.658%.

As for `CC=CC1=C(C(=O)O)N2C(=O)[C@@H](NC(=O)[C@H](N)c3ccc(O)cc3)[C@H]2SC1` [SJ000565172-2, CEFPROZIL], the U937 %inh in the test on U937 (U937 %inh, 10 µM) was -2.74%. In addition, in the test on MOLM-13 (MOLM-13 %inh, 10 µM), the MOLM-13 %inh was found to be 0.07702%. In addition, the ML-2 %inh in the test on ML-2 (ML-2 %inh, 10 µM) is -1.058%. In addition, the CMK %inh in the test with CMK (CMK %inh, 10 µM) is 1.641%. In the test on MV4-11 (MV4-11 %inh, 10 µM), the MV4-11 %inh worked out at 1.013%. In addition, the CMS %inh in the test with CMS (CMS %inh, 10 µM) is reported as -3.774%. For the same compound, the M07e %inh in the test with M07e (M07e %inh, 10 µM) was -4.985%. Further, in the test with CHRF288-11 (CHRF288-11 %inh, 10 µM), the CHRF288-11 %inh is recorded as -7.818%.

As for `COc1cc(C)c(NC(=O)CN(C)C)cc1Nc1nc(Nc2cccc(F)c2C(N)=O)c2cc[nH]c2n1` [SJ000573040-1, N5326-72-2], in the test on U937, the U937 %inh came out at 70.41%. In addition, the MOLM-13 %inh in the test with MOLM-13 is reported as 90.07%. For the same compound, the ML-2 %inh in the test with ML-2 was 42.89%. In the test on CMK, the CMK %inh amounted to 111.2%. For the same compound, the MV4-11 %inh in the test on MV4-11 came out at 56.47%. Also, the CMS %inh with CMS turned out to be 31.36%. Besides, in the test with M07e, the M07e %inh amounted to 103.3%. Also, in the test on CHRF288-11, the CHRF288-11 %inh stood at 60.84%.

Turning to `COc1cc[nH]c1/C=C1\C(=O)Nc2ccc(F)c(C#C[C@@H](O)[C@@H](N)[C@@H](C)O)c21` [SJ000581159-1], the U937 %inh in the test with U937 stood at 83.42%. In the test with MOLM-13, the MOLM-13 %inh came to 95.78%. Besides, the ML-2 %inh with ML-2 worked out at 60.99%. Also, the CMK %inh in the test with CMK came out at 112.6%. In addition, the MV4-11 %inh in the test with MV4-11 turned out to be 92.6%. For the same compound, the CMS %inh in the test on CMS worked out at 97.96%. The M07e %inh with M07e was 87.08%. The CHRF288-11 %inh in the test with CHRF288-11 is 61.95%.

In the case of `COc1ccc(C2=C(N3CCc4ccccc43)C(=O)NC2=O)cc1` [SJ000573061-1, DH97836-162A1], in the test on U937, the U937 %inh stood at 9.443%. Moreover, the MOLM-13 %inh in the test on MOLM-13 is on record as -1.299%. The ML-2 %inh in the test on ML-2 was found to be 4.148%. Also, the CMK %inh in the test on CMK came out at 1.284%. For the same compound, in the test with MV4-11, the MV4-11 %inh was determined as 5.926%. For the same compound, the CMS %inh in the test on CMS is on record as 1.472%. For the same compound, the M07e %inh with M07e amounted to 1.612%. For the same compound, the CHRF288-11 %inh in the test with CHRF288-11 is recorded as 16.97%.

In the case of `CO/N=C(\C(=O)N[C@@H]1C(=O)N2C(C(=O)O)=CCS[C@H]12)c1csc(N)n1` [SJ000565169-1, CEFTIZOXIME SODIUM], in the test with U937, the U937 %inh is -0.2552%. For the same compound, in the test on MOLM-13, the MOLM-13 %inh is on record as -3.581%. Besides, in the test on ML-2, the ML-2 %inh is -0.7534%. Further, the CMK %inh in the test with CMK is on record as -4.179%. Further, the MV4-11 %inh with MV4-11 is -0.08777%. Further, the CMS %inh in the test on CMS is given as -3.365%. Further, the M07e %inh with M07e is reported as 1.196%. Also, the CHRF288-11 %inh with CHRF288-11 is listed as -3.529%.

For `Cn1cc(C2=C(c3ccc4ccccc4c3)C(=O)NC2=O)c2ccccc21` [SJ000581109-1], the U937 %inh in the test with U937 came to 4.798%. In the test on MOLM-13, the MOLM-13 %inh was determined as 1.67%. Further, the ML-2 %inh in the test on ML-2 is given as 4.34%. Further, in the test on CMK, the CMK %inh amounted to 22.8%. In addition, in the test with MV4-11, the MV4-11 %inh is listed as 1.463%. Further, the CMS %inh with CMS is on record as 2.57%. Besides, the M07e %inh with M07e is given as 12.46%. Moreover, the CHRF288-11 %inh in the test on CHRF288-11 was found to be 15.54%.

Take `N#Cc1c(NC(=O)c2cccc3ccccc23)sc2c1CCCC2` [SJ000573026-1, R15619/70/1 | TCS JNK 5A | JNK INHIBITOR IX | | TCS JNK 5A]: the U937 %inh in the test on U937 is recorded as 83.53%. Besides, in the test with MOLM-13, the MOLM-13 %inh came out at 87.75%. Moreover, the ML-2 %inh with ML-2 was found to be 58.68%. The CMK %inh in the test with CMK amounted to 122.9%. For the same compound, the MV4-11 %inh in the test with MV4-11 worked out at 80.18%. Further, the CMS %inh in the test on CMS amounted to 100.8%. Besides, the M07e %inh in the test with M07e came out at 97.41%. In addition, the CHRF288-11 %inh in the test with CHRF288-11 came to 42.98%.

With `C[C@]12CCC(=O)C=C1CC[C@@H]1[C@@H]2[C@@H](O)C[C@@]2(C)[C@H]1CC[C@]2(O)C(=O)COP(=O)(O)O` [SJ000286156-3, HYDROCORTISONE SODIUM PHOSPHATE], in the test on U937, the U937 %inh is 5.176%. In the test on MOLM-13, the MOLM-13 %inh is 15.41%. For the same compound, the ML-2 %inh in the test on ML-2 stood at 0.191%. For the same compound, in the test on CMK, the CMK %inh was 0.9258%. In addition, the MV4-11 %inh in the test with MV4-11 is recorded as -4.752%. Further, in the test with CMS, the CMS %inh was -1.283%. For the same compound, in the test with M07e, the M07e %inh is listed as 0.6039%. For the same compound, the CHRF288-11 %inh in the test with CHRF288-11 worked out at 4.933%.

As to `NCc1ccc(-c2nc(-c3ccc(Cl)c(O)c3)c(-c3ccncc3)[nH]2)cc1` [SJ000573243-1, AN48585-012A1], the U937 %inh in the test on U937 was -0.0474%. Moreover, the MOLM-13 %inh with MOLM-13 worked out at 4.769%. Further, in the test on ML-2, the ML-2 %inh was found to be 1.975%. Besides, in the test with CMK, the CMK %inh amounted to 0.6536%. Besides, the MV4-11 %inh with MV4-11 was 1.86%. Further, the CMS %inh in the test on CMS is -0.03858%. Besides, the M07e %inh in the test on M07e was determined as 3.038%. Besides, in the test on CHRF288-11, the CHRF288-11 %inh is listed as -2.078%.

As for `NC(=O)c1sc(-n2cnc3ccccc32)cc1OCc1ccccc1Br` [SJ000573032-1, U22538/78/1], the U937 %inh with U937 is recorded as 1.777%. In the test on MOLM-13, the MOLM-13 %inh is on record as 1.858%. The ML-2 %inh with ML-2 came out at 42.25%. The CMK %inh in the test on CMK is listed as 4.627%. Also, in the test on MV4-11, the MV4-11 %inh was found to be 0.1879%. Further, in the test with CMS, the CMS %inh was found to be 2.746%. Moreover, the M07e %inh in the test with M07e turned out to be 3.083%. Moreover, the CHRF288-11 %inh in the test on CHRF288-11 is given as -0.9565%.

For `O=[N+]([O-])c1ccc2c(c1)C(c1ccccc1Cl)=Nc1cn[nH]c1N2` [SJ000581083-1], the U937 %inh in the test on U937 is recorded as -1.165%. For the same compound, the MOLM-13 %inh in the test with MOLM-13 is -2.48%. The ML-2 %inh in the test on ML-2 is recorded as -0.08337%. Moreover, the CMK %inh in the test on CMK is on record as -5.045%. For the same compound, in the test on MV4-11, the MV4-11 %inh turned out to be 0.3353%. Besides, in the test with CMS, the CMS %inh was -0.274%. In addition, the M07e %inh in the test with M07e is on record as 4.12%. For the same compound, the CHRF288-11 %inh with CHRF288-11 was -0.2746%.

For the origin of these results see PMC6522510 (Nature Communications, 2019).
